{"source": "patent US20200290950A1", "about": "“ALKAMIDE COMPOUNDS AND USES THEREOF” (NORTH CAROLINA STATE UNIVERSITY, priority 2017, published 2020)", "key": {"[1]": {"test_system": "bone marrow derived mast cells (BMMCs)", "assay": "β-hexosaminidase degranulation assay, BMMCs", "assay_type": "cell-based", "conditions": "Mus musculus, BMMC, A23187-stimulated BMMCs, 1 hr, read-out: maximum inhibition of release of β-hex", "method": "FIGS. 1A-1F. A15 inhibits BMMC and RBL-2H3 cell degranulation. The structure of alkamide A15 is shown with different functional groups and carbons in the fatty acid chain labeled (FIG. 1A). BMMCs were plated and stimulated 4 hrs later with 1 μM A23187 and the indicated concentrations of A15 or vehicle only. The percent degranulation was measured after 1 hr (FIG. 1B). RBL-2H3 cells were treated with A23187 and the percent degranulation was determined 1 hr later (FIG. 1C) or every 10 min over a 1 hr time course (FIG. 1D). RBL-2H3 cells were plated and incubated for 4 hrs before the media was aspirated and replaced with media containing 1 μg/mL IgE anti-DNP. Cells were incubated overnight and washed prior to stimulation. The percent degranulation from RBL-2H3 cells was calculated after stimulation with 50 ng/mL DNP-HSA in combination with the indicated concentrations of A15 or vehicle only after 1 hr (FIG. 1E). RBL-2H3 cells were stimulated for 1 hr in Tyrode's buffer before supernatants were collected and levels of histamine were measured using a competitive inhibition EIA kit (FIG. 1F). […]\nRBL-2H3 cell and BMMC degranulation was measured using a β-hexosaminidase (β-hex) activity assay. […]"}, "[2]": {"assay": "Paw withdrawal latency to heat, cold and touch after topical administration", "assay_type": "in vivo", "conditions": "topical in mineral oil on mouse paws", "method": "FIG. 12. Antinociceptive effect of topical administration of alkamide A15. Measured paw withdrawal latency to Hargreave's (A) cold assay using dry ice (B) and touch using von-Frey (C). Data were analyzed using parametric evaluation (AUC).\nSeveral different model systems were utilized for these experiments. In one model, dorsal root ganglia were obtained from mice and the neurons cultured in vitro. The neurons were then stimulated in the presence/absence of A15 and YM8-85 and the calcium responses monitored by fluorescence microscopy. In the second model, the alkamides were applied to mouse skin in mineral oil. The reactions of these mice to heat, cold, and tactile stimulation was then compared with mice that had not received treatment with A15. In a third model, mice were sensitized to the chemical compound toluene-2,4-diisocyanate (TDI). TDI is an industrial chemical which causes hypersensitive skin lesions and itching in exposed humans and animals. The physiological response to TDI is complex involving type 2 T lymphocytes, cytokines, mast cells, and neurons. Alkamides were applied to sensitized animals and then ear swelling and bouts of scratching were monitored.\nIn vivo responses to painful stimuli. A15 was tested with mice to determine whether the in vitro inhibitory responses noted in FIG. 11 are also seen in vivo. A15 was mixed in mineral oil and added to mouse paws prior to stimulation with heat, cold, or touch. […] Sensations of touch are mediated by distinct families of mechanoreceptors which are apparently unaffected by A15."}}, "data": [{"compound": "CCCCCCC/C=C/C=C/C(=O)NCC(C)C", "note": "[A15, (2E,4E)-N-Isobutyldodeca-2,4-dienamide]", "values": [{"measurement": "inhibition at 100 µM", "setting": "[1]", "value": 83.5, "unit": "%"}, {"measurement": "paw withdrawal latency to cold (dry ice)", "setting": "[2]", "value": "increased withdrawal latency"}, {"measurement": "paw withdrawal latency to heat (Hargreave's)", "setting": "[2]", "value": "increased withdrawal latency"}, {"measurement": "touch latency (von-Frey)", "setting": "[2]", "value": "did not affect touch latency"}]}]}
